# Laboratory results as given in US20090215763A1, “SUBSTITUTED BENZOXAZINONES” (P&H Therapeutics, Inc., priority 2008, published 2009).
# Tested on: spontaneously hypertensive rat (SHR)
# Assay: In vivo model study: telemetry cardiovascular assessment in SHR rats
# Conditions: male SHR rats, intraperitoneal administration, radiotelemetry, preliminary evaluation
# Source text: The objective of this study is to define the magnitude, time course and dose/concentration response relationship of compound 13 antihypertensive effects when administered intraperitoneally (IP) to male SHR rats maintained on standard and low salt diets. In Vivo Phase I: Three male SHR rats, 7-10 weeks of age weighing 150-300 g, will be instrumented with radiotelemetry transmitters. Following an approximate 2-week recovery period, animals will receive a single intraperitoneal dose of test article. Cardiovascular data will be collected for approximately 24 hours following dosing. Cardiovascular data is collected from non-restrained animals implanted with radiotelemetry devices. 1. SHR rats, 7-10 weeks of age weighing 150-300 g, are implanted with radiotelemetry devices. Transmitters are placed subcutaneously in the ventral abdominal region and blood pressure is monitored from the femoral artery. Animals will be allowed to recover at least 10 days prior to data collection. 5. At least 1 hour of baseline is collected from undisturbed animals prior to each dosing. Following test article administration, approximately 24 hours of data is collected from undisturbed animals to assess hemodynamic effects.
smiles,measurement,value
CCc1nc(N)nc(N)c1-c1ccc2c(c1)N(CCNC(=O)OC)C(=O)[C@](C)(c1cc(F)cc(F)c1)O2 [Compound 13],blood pressure reduction in SHR (antihypertensive effect),blood pressure reduction
